Source: article PMC8222276 (Communications Biology, 2021)

Experiments:
RAMP1-HUVECs = assay: cell proliferation (72 h) of RAMP1-HUVECs; format: cell-based, human; settings: RAMP1-HUVEC
Description: (§1) Data are analysed using a three-parameter non-linear regression curve or the operational model of receptor agonism. g–h Signalling bias plots were calculated as ∆Log(τ/KA) (g) or ∆∆Log(τ/KA) (h) for each agonist and for each signalling pathway. […] All data represent mean ± SEM for n repeats.
(§2) Both endothelial cell lines and HCMs were seeded at a density of 2500 cells/well in a clear flat bottom 96-well plate (Corning, UK) and incubated at 37 °C in 5% CO2. After 24 h, cells were exposed to test compounds or vehicle, in complete endothelial cell growth media (HUVECs) or myocyte growth media (HCMs). Cells were incubated for a further 72 h at 37 °C in 5% CO2. After 72 h incubation, 5 μl of Cell Counting Kit–8 (CCK-8, Sigma, UK) was added to each well and cells were then incubated for another 2 h at 37 °C in 5% CO2 and in the dark[61]. The absorbance of each well was measured using a Mithras LB940 microplate reader with an excitation of 450 nm. The absorbance is directly proportional to the number of viable cells. Cell proliferation was calculated as a percentage of number of cells treated with vehicle alone.
All sample sizes were determined, and data analysed, in accordance with the guidelines described by Curtis M et al.[65]. All experiments were appropriately controlled using ‘system pathway’ agonists. If any of these pathway controls generated inappropriate responses, then the entire data set was removed from analysis.

[1] = biological target: T1, AM1 receptor (CLR-RAMP2) in HUAECs (Homo sapiens, UniProt O60895+Q16602); assay: cAMP accumulation in HUAECs; format: cell-based
T1 construct: host or cells: primary HUAECs
Description: (§3) All primary cell lines were cultured as above. On the day of the experiment media was removed and cells washed with PBS, before being dissociated with Trypsin-EDTA 0.05% (Gibco, UK) and then resuspended in PBS/BSA (0.1%) (Sigma, UK). Cells were immediately plated for use in cAMP assay as per the manufacturer’s instructions, reagents used were provided by the LANCE® cAMP detection assay kit (PerkinElmer, Boston, MA, USA), in 384 well optiplates (PerkinElmer (Boston, MA, USA)) at 2000 cells/well in 5 μl aliquots. […] Cells were incubated with compound for 30 min prior to adding detection buffer[28],[60]. Plates were incubated for a further 60 min (room temperature) and then read on a plate reader (Mithras LB 940 microplate reader (Berthold technologies, Germany)). All responses were normalised to 100μM forskolin (Tocris, UK). Antagonist studies were performed in the same way through co-stimulation of the relevant concentration. Alongside control-treated cell. Experiments with PTX (Sigma, UK) required pretreatment (16 h) prior to assays.
All sample sizes were determined, and data analysed, in accordance with the guidelines described by Curtis M et al.[65]. All experiments were appropriately controlled using ‘system pathway’ agonists. If any of these pathway controls generated inappropriate responses, then the entire data set was removed from analysis. […] Data analysis for cAMP accumulation, Ca^2+i mobilisation, NO accumulation, pERK1/2 activation, and cell proliferation assays were performed in GraphPad Prism 8.4 (GraphPad Software, San Diego). Data were fitted to obtain concentration–response curves using either the three-parameter logistic equation using to obtain values of Emax and pEC50 or the operational model of agonism. Statistical differences were analysed using one-way ANOVA followed by Dunnett’s post-hoc (for comparisons amongst more than two groups) or unpaired Student’s t test with Welch’s correction (for comparison between two groups). To account for the day-to-day variation experienced from the cultured cells, we used the maximal level of cAMP accumulation from cells in response to 100 μM forskolin stimulation was used as a reference, 10 μM ionomycin for Ca^2+i assays, 10 μM phorbol 12-myristate 13-acetate (PMA) for pERK1/2 activation, 10 μM acetylcholine for NO production and 10 μM VEGF for cell proliferation. […] Where appropriate the operational model for receptor agonism[27] was used to obtain efficacy (τ) and equilibrium disassociation constant (KA) values. In both cases, this normalisation removes the variation due to differences in days but retains the variance for control values. […] Having obtained values for τ and KA these were then used to quantify signalling bias as the change in Log(τ/KA)[19],[28]. […]

HUAECs = assay: cell proliferation (72 h) of HUAECs; format: cell-based, human; settings: HUAEC
Description: as §2
(§4) All sample sizes were determined, and data analysed, in accordance with the guidelines described by Curtis M et al.[65]. All experiments were appropriately controlled using ‘system pathway’ agonists. If any of these pathway controls generated inappropriate responses, then the entire data set was removed from analysis. […] Data analysis for cAMP accumulation, Ca^2+i mobilisation, NO accumulation, pERK1/2 activation, and cell proliferation assays were performed in GraphPad Prism 8.4 (GraphPad Software, San Diego). Data were fitted to obtain concentration–response curves using either the three-parameter logistic equation using to obtain values of Emax and pEC50 or the operational model of agonism. Statistical differences were analysed using one-way ANOVA followed by Dunnett’s post-hoc (for comparisons amongst more than two groups) or unpaired Student’s t test with Welch’s correction (for comparison between two groups). To account for the day-to-day variation experienced from the cultured cells, we used the maximal level of cAMP accumulation from cells in response to 100 μM forskolin stimulation was used as a reference, 10 μM ionomycin for Ca^2+i assays, 10 μM phorbol 12-myristate 13-acetate (PMA) for pERK1/2 activation, 10 μM acetylcholine for NO production and 10 μM VEGF for cell proliferation. […] Where appropriate the operational model for receptor agonism[27] was used to obtain efficacy (τ) and equilibrium disassociation constant (KA) values. In both cases, this normalisation removes the variation due to differences in days but retains the variance for control values. The means of individual experiments were combined to generate the curves shown. Having obtained values for τ and KA these were then used to quantify signalling bias as the change in Log(τ/KA)[19],[28]. Error for this composite measure was propagated by applying Eq. 1.1 PooledSEM=(SEMA)^2+(SEMB)^2 Where, SEMA and SEMB are the standard error of measurement A and B.
(1 picture or pasted object on this page, not shown here)

[2] = tested on: human cardiomyocytes (HCMs); assay: cell proliferation (72 h) of HCMs; format: cell-based; settings: HCM
Description: (§5) Data are analysed using a three-parameter non-linear regression curve or the operational model of receptor agonism. g, h Signalling bias plots were calculated as ∆Log(τ/KA) (g) or ∆∆Log(τ/KA) (h) for each agonist and for each signalling pathway. […] All data represent mean ± SEM for n repeats.
as §2, §4

heart = settings: cited from earlier work
[3] = biological target: T2, CGRP receptor (CLR-RAMP1) in human cardiomyocytes (HCMs) (Homo sapiens, UniProt O60894+Q16602); assay: cAMP accumulation in HCMs; format: cell-based; settings: HCM, 30 min, relative to 100 μM forskolin, mean ± SEM
T2 construct: primary human cardiomyocytes (HCMs) since these cells only expressed CLR and RAMP1; host or cells: primary human cardiomyocytes (HCMs)
Description: as §5
All primary cell lines were cultured as above. On the day of the experiment media was removed and cells washed with PBS, before being dissociated with Trypsin-EDTA 0.05% (Gibco, UK) and then resuspended in PBS/BSA (0.1%) (Sigma, UK). […] Plates were incubated for a further 60 min (room temperature) and then read on a plate reader (Mithras LB 940 microplate reader (Berthold technologies, Germany)). […]
All sample sizes were determined, and data analysed, in accordance with the guidelines described by Curtis M et al.[65]. […] Statistical differences were analysed using one-way ANOVA followed by Dunnett’s post-hoc (for comparisons amongst more than two groups) or unpaired Student’s t test with Welch’s correction (for comparison between two groups). […] Having obtained values for τ and KA these were then used to quantify signalling bias as the change in Log(τ/KA)[19],[28]. […]

[4] = biological target: T3, CGRP receptor (CLR-RAMP1) in RAMP1-HUVECs (Homo sapiens, UniProt O60894+Q16602); assay: cAMP accumulation in RAMP1-HUVECs; format: cell-based; settings: RAMP1-HUVEC, 30 min, relative to 100 μM forskolin, mean ± SEM
T3 construct: biased agonism at the endogenous CLR in a physiological system; the open reading frame of RAMP1 into our HUVEC∆RAMP2 cell line; host or cells: HUVEC-∆RAMP2 (CRISPR-Cas9 RAMP2 knockout pool), lentiviral transduction, blasticidin selection
Description: as §1
as §3, with “Experiments with PTX (Sigma, UK) required pretreatment (16 h) prior to assays.” left out
All sample sizes were determined, and data analysed, in accordance with the guidelines described by Curtis M et al.[65]. […]

[5] = Growth, calculated from Table S2
[6] = proliferation, 72 h, CCK-8, mean ± SEM
[7] = proliferation, 72 h, mean ± SEM of 3-6 data sets
[8] = proliferation, operational model, mean ± SEM
[9] = cAMP, HUAEC, operational model, mean ± SEM

T1 sequence (Q16602 23-461): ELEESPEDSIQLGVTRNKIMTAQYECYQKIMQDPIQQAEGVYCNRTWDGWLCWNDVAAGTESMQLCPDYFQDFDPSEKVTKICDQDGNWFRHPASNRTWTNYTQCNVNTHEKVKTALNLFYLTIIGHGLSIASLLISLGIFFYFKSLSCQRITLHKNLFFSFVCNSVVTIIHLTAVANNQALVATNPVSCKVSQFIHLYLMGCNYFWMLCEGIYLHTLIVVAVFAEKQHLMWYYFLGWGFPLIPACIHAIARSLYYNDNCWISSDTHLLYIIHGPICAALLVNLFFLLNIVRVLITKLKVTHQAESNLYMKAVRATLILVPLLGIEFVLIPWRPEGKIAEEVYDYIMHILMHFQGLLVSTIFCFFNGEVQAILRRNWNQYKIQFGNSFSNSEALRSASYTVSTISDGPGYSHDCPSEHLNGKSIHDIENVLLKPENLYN
T1 sequence (O60895 43-175): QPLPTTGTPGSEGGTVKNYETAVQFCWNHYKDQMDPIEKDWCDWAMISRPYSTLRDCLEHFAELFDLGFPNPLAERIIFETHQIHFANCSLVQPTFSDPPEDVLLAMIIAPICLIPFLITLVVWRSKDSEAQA
T2 sequence (Q16602 23-461): as the sequence (Q16602 23-461) above
T2 sequence (O60894 27-148): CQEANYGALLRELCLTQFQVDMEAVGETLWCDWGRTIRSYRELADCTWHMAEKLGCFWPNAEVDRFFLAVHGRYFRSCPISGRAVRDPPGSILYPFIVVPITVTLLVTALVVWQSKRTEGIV
T3 sequence (Q16602 23-461): as the sequence (Q16602 23-461) above
T3 sequence (O60894 27-148): as the sequence (O60894 27-148) above

Which “Transducer coefficient Log(τ/KA)” value (RAMP1-HUVECs; [5]) does the source give for `CSCC[C@H](NC(=O)[C@H](CC(C)C)NC(=O)[C@H](CCC(N)=O)NC(=O)[C@H](Cc1c[nH]c2ccccc12)NC(=O)[C@H](CC(C)C)NC(=O)[C@H](CCCNC(=N)N)NC(=O)[C@H](Cc1c[nH]cn1)NC(=O)[C@H](CO)NC(=O)[C@H](CC(C)C)NC(=O)[C@H](CC(N)=O)NC(=O)[C@H](CCC(N)=O)NC(=O)[C@@H](NC(=O)[C@H](CCC(N)=O)NC(=O)[C@@H]1CSSC[C@H](NC(=O)CNC(=O)[C@@H](NC(=O)[C@H](CCCNC(=N)N)NC(=O)[C@H](CC(C)C)NC(=O)[C@H](CC(C)C)NC(=O)[C@H](CCC(N)=O)NC(=O)[C@H](C)NC(=O)[C@H](CCC(N)=O)NC(=O)[C@@H](N)[C@@H](C)O)C(C)C)C(=O)N[C@@H](C(C)C)C(=O)N[C@@H](CC(C)C)C(=O)NCC(=O)N[C@@H]([C@@H](C)O)C(=O)N1)C(C)C)C(=O)NCC(=O)N1CCC[C@H]1C(=O)N[C@@H](C)C(=O)NCC(=O)N[C@@H](CCCNC(=N)N)C(=O)N[C@@H](CCC(N)=O)C(=O)N[C@@H](CC(=O)O)C(=O)N[C@@H](CO)C(=O)N[C@@H](C)C(=O)N1CCC[C@H]1C(=O)N[C@H](C(=O)N[C@@H](CC(=O)O)C(=O)N1CCC[C@H]1C(=O)N[C@@H](CO)C(=O)N[C@@H](CO)C(=O)N1CCC[C@H]1C(=O)N[C@@H](Cc1c[nH]cn1)C(=O)N[C@@H](CO)C(=O)N[C@@H](Cc1ccc(O)cc1)C(N)=O)C(C)C` [AM2, adrenomedullin 2] here?
Its value is 5.73±0.56.

What about the promotion of growth (RAMP1-HUVECs; 72 h) of the same compound?
The promotion of growth was “could also promote growth”.

And the Emax (RAMP1-HUVECs; [6])?
Its Emax is 201.29±11.45%.

What about the pEC50 (RAMP1-HUVECs; [7]) of the same compound?
Its pEC50 is 5.85±0.17.

What about the logτ (RAMP1-HUVECs; [8]) of the same compound?
Its logτ is 0.71±0.34.

What about the pKA (RAMP1-HUVECs; [8]) of the same compound?
The pKA was 5.02±0.44.

What about the Emax [1] of the same compound?
The Emax was 17.5 ± 1.21%.

And the “Transducer coefficient Log(τ/KA)” value ([1]; cAMP, HUAEC, calculated from Table S1)?
The value was 6.03±0.22.

What about the logτ [1, 9] of the same compound?
The logτ was -0.75±0.05.

What about the pKA [1, 9] of the same compound?
Its pKA is 6.78±0.21.

And the “Transducer coefficient Log(τ/KA)” value (HUAECs; Growth, calculated from Table S1)?
The value was 5.81±1.89.

What about the Emax (HUAECs; [6]) of the same compound?
The Emax was 111.68±1.62%.

What about the pEC50 (HUAECs; [7]) of the same compound?
Its pEC50 is 6.87±0.48.

And the logτ (HUAECs; [8])?
The logτ was -1.10±0.26.

And the pKA (HUAECs; [8])?
Its pKA is 6.91±1.87.

What about the “Transducer coefficient Log(τ/KA)” value [2, 5] of the same compound?
Its value is 5.78±0.60.

And the Emax [2, 6]?
Its Emax is 114.68±3.58%.

What about the pEC50 [2, 7] of the same compound?
Its pEC50 is 6.48±0.58.

And the logτ [2, 8]?
The logτ was -0.60±0.12.

What about the pKA [2, 8] of the same compound?
The pKA was 6.38±0.59.

And the “effect of protein kinase inhibitors on contraction effect” value (heart)?
The value was “blocked by both inhibitors of both protein kinase A and C”.

Which results are given for `CC[C@H](C)[C@H](NC(=O)[C@H](CCC(N)=O)NC(=O)[C@H](Cc1c[nH]cn1)NC(=O)[C@H](C)NC(=O)[C@H](CC(C)C)NC(=O)[C@H](CCCCN)NC(=O)[C@H](CCC(N)=O)NC(=O)[C@@H](NC(=O)[C@@H](NC(=O)[C@@H]1CSSC[C@H](NC(=O)CNC(=O)[C@H](Cc2ccccc2)NC(=O)[C@H](CO)NC(=O)[C@H](CCCNC(=N)N)NC(=O)[C@H](CC(C)C)NC(=O)CNC(=O)[C@H](CCC(N)=O)NC(=O)[C@H](Cc2ccccc2)NC(=O)[C@H](CC(N)=O)NC(=O)[C@H](CC(N)=O)NC(=O)[C@H](CCSC)NC(=O)[C@H](CO)NC(=O)[C@H](CCC(N)=O)NC(=O)[C@H](CCCNC(=N)N)NC(=O)[C@@H](N)Cc2ccc(O)cc2)C(=O)N[C@@H](CCCNC(=N)N)C(=O)N[C@@H](Cc2ccccc2)C(=O)NCC(=O)N[C@@H]([C@@H](C)O)C(=O)N1)[C@@H](C)O)C(C)C)C(=O)N[C@@H](Cc1ccc(O)cc1)C(=O)N[C@@H](CCC(N)=O)C(=O)N[C@@H](Cc1ccccc1)C(=O)N[C@H](C(=O)N[C@@H](CC(=O)O)C(=O)N[C@@H](CCCCN)C(=O)N[C@@H](CC(=O)O)C(=O)N[C@@H](CCCCN)C(=O)N[C@@H](CC(=O)O)C(=O)N[C@@H](CC(N)=O)C(=O)N[C@H](C(=O)N[C@@H](C)C(=O)N1CCC[C@H]1C(=O)N[C@@H](CCCNC(=N)N)C(=O)N[C@@H](CO)C(=O)N[C@@H](CCCCN)C(=O)N[C@H](C(=O)N[C@@H](CO)C(=O)N1CCC[C@H]1C(=O)N[C@@H](CCC(N)=O)C(=O)NCC(=O)N[C@@H](Cc1ccc(O)cc1)C(N)=O)[C@@H](C)CC)C(C)C)[C@@H](C)O` [AM, adrenomedullin]?
Emax [3]: 63 ± 3.14%; Emax [4]: 39 ± 2.08%
